Measured values as given in ChEMBL document CHEMBL1201862, “PubChem BioAssay data set” (2004).
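Five compound concentrations were applied to cells in 96-well plates for 48 hours; endpoints were derived by simple linear interpolation of the resulting dose-response curve. Abbreviation: GI50, concentration required for 50% inhibition of growth.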 The source made the active and inactive calls. No stated cut-off is given here; in the data, active = GI50 up to about 1.1 µM and inactive = higher.

How the values were obtained:
Test in all cases: growth of human tumour cells (NCI), 48 h
[1] = system: ACHN
[2] = system: SK-MEL-2
[3] = system: UACC-257
[4] = system: KM12
[5] = system: M14
[6] = system: MDA-MB-231
[7] = system: MOLT-4
[8] = system: SF-295
[9] = system: UO-31
[10] = system: MCF7
[11] = system: OVCAR-5
[12] = system: SR
[13] = system: U-251
[14] = system: NCI-H226
[15] = system: HT-29
[16] = system: 786-0
[17] = system: T47D
[18] = system: IGROV-1
[19] = system: A549
[20] = system: SW-620

In the case of `CC1OC(CC(=O)O)CC2=C1C(=O)c1c(O)cccc1C2=O` (stereo not drawn) [NANAOMYCIN], the GI50 [1] is reported as 0.229 µM (active), the GI50 [2] is reported as 0.331 µM (active) and the GI50 [3] is reported as 0.0968 µM (active). For the same compound, the GI50 [4] was 1.27 µM (inactive), the GI50 [5] was 0.14 µM (active) and the GI50 [6] was 0.218 µM (active). For the same compound, the GI50 [7] was 0.0309 µM (active), the GI50 [8] was 1.08 µM (active) and the GI50 [9] was 0.483 µM (active). For the same compound, the GI50 [10] was 0.142 µM (active), the GI50 [11] was 1.39 µM (inactive) and the GI50 [12] was 0.0336 µM (active). For the same compound, the GI50 [13] was 1.03 µM (active), the GI50 [14] was 0.977 µM (active) and the GI50 [15] was 0.0624 µM (active). The GI50 [16] was 0.137 µM (active), the GI50 [17] was 0.188 µM (active) and the GI50 [18] was 0.36 µM (active). The GI50 [19] was 2.08 µM (inactive) and the GI50 [20] was 0.0361 µM (active).
In the case of `O=C(NNc1nc(-c2ccccc2)cs1)C(F)(F)F`, the GI50 [1] is reported as 29.2 µM (inactive), the GI50 [2] is reported as 36.3 µM (inactive) and the GI50 [3] is reported as 44.3 µM (inactive). The GI50 [4] was 30.1 µM (inactive), the GI50 [5] was 57.1 µM (inactive) and the GI50 [6] was 68.7 µM (inactive). For the same compound, the GI50 [7] was 20 µM (inactive), the GI50 [8] was 29.5 µM (inactive) and the GI50 [9] was 3.3 µM (inactive). The GI50 [10] was > 100 µM (inactive), the GI50 [11] was > 100 µM (inactive) and the GI50 [12] was 33.4 µM (inactive). For the same compound, the GI50 [13] was 26.3 µM (inactive), the GI50 [14] was 20.5 µM (inactive) and the GI50 [15] was 47.2 µM (inactive). For the same compound, the GI50 [16] was > 100 µM (inactive), the GI50 [17] was 23.9 µM (inactive) and the GI50 [18] was 20.2 µM (inactive). The GI50 [19] was 39.2 µM (inactive) and the GI50 [20] was 34.4 µM (inactive).
For `CCN(CC)c1ccc(/C=C/C=C2C(=O)NC(=S)NC2=O)cc1`, the GI50 [1] was > 100 µM (inactive), the GI50 [2] was > 68.9 µM (inactive) and the GI50 [3] was 58.6 µM (inactive). The GI50 [4] was 38 µM (inactive), the GI50 [5] was 35.4 µM (inactive) and the GI50 [6] was 22.9 µM (inactive). For the same compound, the GI50 [7] was 4.27 µM (inactive), the GI50 [8] was > 83.6 µM (inactive) and the GI50 [9] was > 71.8 µM (inactive). For the same compound, the GI50 [10] was 27 µM (inactive), the GI50 [11] was > 100 µM (inactive) and the GI50 [12] was 2.53 µM (inactive). The GI50 [13] was 21 µM (inactive), the GI50 [14] was 28.6 µM (inactive) and the GI50 [15] was > 100 µM (inactive). For the same compound, the GI50 [16] was 27.7 µM (inactive), the GI50 [17] was > 100 µM (inactive) and the GI50 [18] was > 100 µM (inactive). The GI50 [19] was > 100 µM (inactive) and the GI50 [20] was > 33.9 µM (inactive).
For `Cc1nn(-c2ccccc2)c(C)c1/C=N/N=C1\SCC(=O)N1c1ccccc1`, the GI50 [1] was 17.3 µM (inactive), the GI50 [2] was 25.7 µM (inactive) and the GI50 [3] was 32.4 µM (inactive). For the same compound, the GI50 [4] was 25 µM (inactive), the GI50 [5] was 28.6 µM (inactive) and the GI50 [6] was 35 µM (inactive). The GI50 [7] was 30.8 µM (inactive), the GI50 [8] was 21.5 µM (inactive) and the GI50 [9] was 21.5 µM (inactive). The GI50 [10] was 27.4 µM (inactive), the GI50 [11] was 27.7 µM (inactive) and the GI50 [12] was 25.1 µM (inactive). For the same compound, the GI50 [13] was 25.8 µM (inactive), the GI50 [14] was 23.6 µM (inactive) and the GI50 [15] was 20.5 µM (inactive). The GI50 [16] was 15.8 µM (inactive), the GI50 [17] was 26.5 µM (inactive) and the GI50 [18] was 32.3 µM (inactive). For the same compound, the GI50 [19] was 28.6 µM (inactive) and the GI50 [20] was 33.9 µM (inactive).
In the case of `CCCCc1ccc(N2C(=O)c3cc(C)cnc3S2(=O)=O)cc1`, the GI50 [1] is reported as > 100 µM (inactive), the GI50 [2] is reported as > 100 µM (inactive) and the GI50 [4] is reported as > 100 µM (inactive). For the same compound, the GI50 [5] was > 100 µM (inactive), the GI50 [6] was > 100 µM (inactive) and the GI50 [7] was > 100 µM (inactive). For the same compound, the GI50 [8] was 91.8 µM (inactive), the GI50 [9] was > 100 µM (inactive) and the GI50 [10] was > 100 µM (inactive). For the same compound, the GI50 [11] was > 100 µM (inactive), the GI50 [12] was > 100 µM (inactive) and the GI50 [13] was > 100 µM (inactive). The GI50 [14] was > 100 µM (inactive), the GI50 [15] was > 100 µM (inactive) and the GI50 [16] was > 100 µM (inactive). For the same compound, the GI50 [17] was > 100 µM (inactive), the GI50 [18] was > 100 µM (inactive) and the GI50 [19] was > 100 µM (inactive). For the same compound, the GI50 [20] was > 100 µM (inactive).
With `CON(C)C(=O)CNC(=O)OCC1c2ccccc2-c2ccccc21` the GI50 [1] was > 100 µM (inactive), the GI50 [2] was > 100 µM (inactive) and the GI50 [3] was > 100 µM (inactive). The GI50 [4] was > 100 µM (inactive), the GI50 [5] was > 100 µM (inactive) and the GI50 [6] was > 100 µM (inactive). For the same compound, the GI50 [7] was 37.9 µM (inactive), the GI50 [8] was > 100 µM (inactive) and the GI50 [9] was 63.2 µM (inactive). For the same compound, the GI50 [10] was > 100 µM (inactive), the GI50 [11] was > 100 µM (inactive) and the GI50 [12] was 30.6 µM (inactive). The GI50 [13] was 98.4 µM (inactive), the GI50 [14] was > 100 µM (inactive) and the GI50 [15] was > 100 µM (inactive). For the same compound, the GI50 [16] was > 100 µM (inactive), the GI50 [17] was 68.4 µM (inactive) and the GI50 [18] was > 100 µM (inactive). For the same compound, the GI50 [19] was > 100 µM (inactive) and the GI50 [20] was > 100 µM (inactive).
For `COC(=O)c1c(OC(C)=O)ccc2c1c1c(n2Cc2ccccc2)C(=O)c2ccccc2C1=O`, the GI50 [1] was 30.1 µM (inactive), the GI50 [2] was 18.7 µM (inactive) and the GI50 [3] was 10.7 µM (inactive). For the same compound, the GI50 [4] was 20.5 µM (inactive), the GI50 [5] was 22 µM (inactive) and the GI50 [6] was 17.1 µM (inactive). For the same compound, the GI50 [7] was 16.8 µM (inactive), the GI50 [8] was 17.5 µM (inactive) and the GI50 [9] was 37.2 µM (inactive). For the same compound, the GI50 [10] was 33.9 µM (inactive), the GI50 [11] was 20.1 µM (inactive) and the GI50 [12] was 24.9 µM (inactive). For the same compound, the GI50 [13] was 19.4 µM (inactive), the GI50 [14] was 23 µM (inactive) and the GI50 [15] was 16.9 µM (inactive). For the same compound, the GI50 [16] was 25.6 µM (inactive), the GI50 [17] was 20 µM (inactive) and the GI50 [18] was 20.1 µM (inactive). The GI50 [19] was 26.4 µM (inactive).
